As usually defined, the IC50 is the concentration needed to halve the response being measured. A low value points to higher potency.

The results in this text go back to paper PMC11357161, “Phytochemical Analysis, Biological Activities, and Docking of Phenolics from Shoot Cultures of Hypericum perforatum L. Transformed by Agrobacterium rhizogenes” (Molecules, 2024).

Marks after values point to notes of the source that are not given here.

Common to all, as to type: biochemical
In one assay the target is α-amylase (α-AM) (Aspergillus oryzae, UniProt P0C1B3). Briefly: α-AM inhibitory activity in vitro. Particulars: concentration that inhibits 25% of enzyme activity; mean ± SD, three replicates. As to the method:
(§1) Shoot methanolic extracts were evaporated in a freeze-dryer (Labconco, Kansas City, MO, USA), and dry extracts were dissolved in 50% dimethyl sulfoxide. […] The protocols for MAO-A, AChE, BChE, TYR, α-AM, α-GL, PL, and CHE inhibitory activities were presented in our previous studies. […] Three replicates were used for all enzyme-inhibitory tests.

Assay [1] deals with T1, monoamine oxidase-A (MAO-A) (Homo sapiens, UniProt P21397).
T1 sequence (P21397 1-527): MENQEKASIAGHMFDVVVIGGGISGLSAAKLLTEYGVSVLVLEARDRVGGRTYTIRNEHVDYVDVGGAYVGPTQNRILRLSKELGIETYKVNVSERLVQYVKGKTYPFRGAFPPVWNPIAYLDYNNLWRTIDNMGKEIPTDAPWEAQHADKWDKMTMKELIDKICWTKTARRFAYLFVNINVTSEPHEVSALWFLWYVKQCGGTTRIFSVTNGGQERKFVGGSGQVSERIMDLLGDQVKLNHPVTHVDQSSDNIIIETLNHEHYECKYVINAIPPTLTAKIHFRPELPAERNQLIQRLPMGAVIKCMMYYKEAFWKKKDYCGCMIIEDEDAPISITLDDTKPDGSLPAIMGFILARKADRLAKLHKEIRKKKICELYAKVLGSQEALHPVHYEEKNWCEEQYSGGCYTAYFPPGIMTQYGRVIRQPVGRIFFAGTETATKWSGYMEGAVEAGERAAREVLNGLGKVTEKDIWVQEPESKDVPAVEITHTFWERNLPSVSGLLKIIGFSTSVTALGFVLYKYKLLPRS
Briefly: MAO-A inhibitory activity in vitro. As to the method:
as §1

Assay [2] has as its target T2, cholesterol esterase (CHE) (Homo sapiens, UniProt P19835).
T2 sequence (P19835 21-753): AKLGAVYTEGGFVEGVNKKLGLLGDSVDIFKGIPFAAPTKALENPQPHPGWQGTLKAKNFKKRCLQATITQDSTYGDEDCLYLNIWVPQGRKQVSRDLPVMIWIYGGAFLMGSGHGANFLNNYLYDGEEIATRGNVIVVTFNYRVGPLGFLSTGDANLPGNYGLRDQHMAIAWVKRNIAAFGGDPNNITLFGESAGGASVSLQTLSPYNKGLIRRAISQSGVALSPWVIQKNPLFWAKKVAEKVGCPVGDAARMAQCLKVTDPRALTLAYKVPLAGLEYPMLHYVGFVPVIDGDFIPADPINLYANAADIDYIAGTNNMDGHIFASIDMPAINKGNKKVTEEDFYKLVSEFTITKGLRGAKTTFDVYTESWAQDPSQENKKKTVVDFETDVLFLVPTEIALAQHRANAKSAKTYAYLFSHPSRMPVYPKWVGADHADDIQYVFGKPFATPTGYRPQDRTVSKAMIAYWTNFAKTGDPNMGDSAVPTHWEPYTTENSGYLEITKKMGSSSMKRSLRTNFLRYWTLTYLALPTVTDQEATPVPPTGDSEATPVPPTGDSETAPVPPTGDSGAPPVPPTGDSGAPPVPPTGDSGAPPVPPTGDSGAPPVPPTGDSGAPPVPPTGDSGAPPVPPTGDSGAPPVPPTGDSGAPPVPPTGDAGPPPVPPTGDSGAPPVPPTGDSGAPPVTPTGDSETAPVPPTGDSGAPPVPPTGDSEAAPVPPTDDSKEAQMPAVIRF
Briefly: CHE inhibitory activity in vitro. Particulars: concentration that inhibits 50% of enzyme activity; mean ± SD, three replicates. How it is done:
as §1

Take `C[C@H]1O[C@H](O[C@H]2[C@H](O)[C@@H](O)[C@@H](O[C@H]3[C@H](O)[C@@H](O)C(O)O[C@@H]3CO)O[C@@H]2CO)[C@H](O)[C@@H](O)[C@@H]1N[C@H]1C=C(CO)[C@@H](O)[C@H](O)[C@H]1O` (stereo partly drawn) [Acarbose]: at α-amylase (α-AM), the “α-AM (IC25)” value was 6.77 ± 0.76 ^a µg·mL^−1.

For the compound `Oc1ccc(Cl)cc1Cl` [DCP, 2,4-dichlorophenol], in assay [1], the concentration for half-maximal inhibition (IC50) is 226 µM.

For the compound `CCC(C)(C)C(=O)O[C@H]1C[C@@H](C)C=C2C=C[C@H](C)[C@H](CC[C@@H]3C[C@@H](O)CC(=O)O3)[C@H]21` [Simvastatin], in assay [2], the half-maximal inhibitory concentration (IC50) is 383 µM.
